Assay results published in patent US20220378707A1, “1-(((2S,3S,4S)-3-ETHYL-4-FLUORO-5-OXOPYRROLIDIN-2-YL)METHOXY)-7-METHOXYISOQUINOLINE-6-CARBOXAMIDE COMBINATIONS AND ORAL DOSAGE FORMS” (Pfizer Inc., priority 2019, published 2022).
Entries after “also recorded” stand apart in the source; their conditions may differ.

What was measured:
[1] = test system: HUVEC+(IL-1β, TNFα and IFNγ); test: BioMAP 3C system; assay type: cell-based, human; settings: agent alone; PF-06650833 19, 56, 170, 500 nM; tofacitinib 37, 110, 330, 1000 nM
Description: The BioMAP systems consist of human primary cell-based systems designed to model different aspects of the human body in an in vitro format. The 12 systems tested characterized the test compounds across a broad set of systems modeling various human disease states. BioMAP systems were constructed with one or more primary cell types from healthy human donors, with stimuli (such as cytokines or growth factors) added to capture relevant signaling networks that naturally occur in human tissue or pathological conditions. Vascular biology was modeled in both a Th1 (3C system) and a Th2 (4H system) inflammatory environment, as well as in a Th1 inflammatory state specific to arterial smooth muscle cells (CASM3C system). […]
Systems were derived from either single cell types or co-culture systems. […] Test agents were prepared in DMSO (final concentration <0.1%) and were added 1 hour before stimulation, and remained in culture for 24 hours or as otherwise indicated (48-hrs, MyoF system; 72-hrs, BT system (soluble readouts); 168-hrs, BT system (secreted IgG)). […] Soluble factors from supernatants were quantified using either HTRF® detection, bead-based multiplex immunoassay or capture ELISA. Overt adverse effects of test agents on cell proliferation and viability (cytotoxicity) were detected by sulforhodamine B (SRB) staining, for adherent cells, and alamarBlue® reduction for cells in suspension.

[2] = test system: CD19+B cells and PBMC+(α-IgM and TCR ligands); test: BioMAP BT system; assay type: cell-based, human; settings: for Inhibition of biomarker readouts in the BT system / Increased biomarker readouts in the BT system: T cell dependent B cell activation; for Inhibition of biomarker readouts in the BT system: concentrations of FIGS. 12-14; for Increased biomarker readouts in the BT system: tofacitinib 37-1000 nM
Description: The BioMAP systems consist of human primary cell-based systems designed to model different aspects of the human body in an in vitro format. The 12 systems tested characterized the test compounds across a broad set of systems modeling various human disease states. BioMAP systems were constructed with one or more primary cell types from healthy human donors, with stimuli (such as cytokines or growth factors) added to capture relevant signaling networks that naturally occur in human tissue or pathological conditions. Vascular biology was modeled in both a Th1 (3C system) and a Th2 (4H system) inflammatory environment, as well as in a Th1 inflammatory state specific to arterial smooth muscle cells (CASM3C system). Additional systems recapitulated aspects of the systemic immune response that included monocyte-driven Th1 inflammation (LPS system) or T cell stimulation (SAg system), chronic Th1 inflammation driven by macrophage activation (IMphg system) and the T cell-dependent activation of B cells that occurs in germinal centers (BT system). The BE3C system (Th1) and the BF4T system (Th2) represented airway inflammation of the lung, while the MyoF system modeled myofibroblast-lung tissue remodeling. Lastly, skin biology was addressed in the KF3CT system modeled Th1 cutaneous inflammation and the HDF3CGF system modeled wound healing.
All cells were from a pool of multiple donors (n=2-6), commercially purchased and handled according to the recommendations of the manufacturers. Human blood derived CD14+ monocytes were differentiated into macrophages in vitro before being added to the IMphg system. Abbreviations were used as follows: human umbilical vein endothelial cells (HUVEC), peripheral blood mononuclear cells (PBMC), human neonatal dermal fibroblasts (HDFn), B cell receptor (BCR), T cell receptor (TCR) and toll-like receptor (TLR). Cell types and stimuli used in each system were as follows:
3C system [HUVEC+(IL-1β, TNFα and IFNγ)]; 4H system [HUVEC+(IL-4 and histamine)]; LPS system [PBMC and HUVEC+LPS (TLR4 ligand)]; SAg system [PBMC and HUVEC+T cell receptor (TCR) ligands]; BT system [CD19+B cells and PBMC+(α-IgM and TCR ligands)]; BF4T system [bronchial epithelial cells and HDFn+(TNFα and IL-4)]; BE3C system [bronchial epithelial cells+(IL-1p, TNFα and IFNγ)]; CASM3C system [coronary artery smooth muscle cells+(IL-1p, TNFα and IFNγ)]; HDF3CGF system [HDFn+(IL-1β, TNFα, IFNγ, EGF, bFGF and PDGF-BB)]; KF3CT system [keratinocytes and HDFn+(IL-1β, TNFα and IFNγ)]; MyoF system [differentiated lung myofibroblasts+(TNFα and TGFβ)]; and IMphg system [HUVEC and M1 macrophages+Zymosan (TLR2 ligand)].
Systems were derived from either single cell types or co-culture systems. Adherent cell types were cultured in 96 or 384-well plates until confluence, followed by the addition of PBMC (SAg and LPS systems). The BT system consisted of CD19+B cells co-cultured with PBMC and stimulated with a BCR activator and low levels of TCR stimulation. Test agents were prepared in DMSO (final concentration <0.1%) and were added 1 hour before stimulation, and remained in culture for 24 hours or as otherwise indicated (48-hrs, MyoF system; 72-hrs, BT system (soluble readouts); 168-hrs, BT system (secreted IgG)). Each plate contained drug controls (e.g., legacy control test agent colchicine at 1.1 μM), negative controls (e.g., non-stimulated conditions) and vehicle controls (e.g., 0.1% DMSO) appropriate for each system. Direct ELISA was used to measure biomarker levels of cell-associated and cell membrane targets. Soluble factors from supernatants were quantified using either HTRF® detection, bead-based multiplex immunoassay or capture ELISA. Overt adverse effects of test agents on cell proliferation and viability (cytotoxicity) were detected by sulforhodamine B (SRB) staining, for adherent cells, and alamarBlue® reduction for cells in suspension. […]

[3] = 13 week toxicology study in rat: exposure interaction of tofacitinib and PF-06650833; assay type: in vivo

C[C@@H]1CCN(C(=O)CC#N)C[C@@H]1N(C)c1ncnc2[nH]ccc12 [tofacitinib, 3-((3R,4R)-4-Methyl-3-(methyl(7H-pyrrolo[2,3-d]pyrimidin-4-yl)amino)piperidin-1-yl)-3-oxopropanenitrile]
Activity in the 3C system [1]: no activity | Inhibition of biomarker readouts in the BT system [2]: sIgG, sIL-17F, sIL-2, IL-6, and sTNFα; also recorded: strongly inhibited responses | Inhibition of biomarker readouts in the BT system ([2]; listed as Tofacitinib): active over all tested concentrations; also recorded: sIgG, sIL-17F, sIL-6, and sTNFα | Increased biomarker readouts in the BT system [2]: increase in secreted IL-2 | Increased biomarker readouts in the BT system ([2]; listed as Tofacitinib): sIL-2 | B cell proliferation in the BT system ([2]; concentrations of FIGS. 13-14): B cell anti-proliferative activity

CC[C@@H]1[C@H](F)C(=O)N[C@@H]1COc1nccc2cc(C(N)=O)c(OC)cc12 [PF-06650833, 1-(((2S,3S,4S)-3-Ethyl-4-fluoro-5-oxopyrrolidin-2-yl)methoxy)-7-methoxyisoquinoline-6-carboxamide]
Activity in the 3C system [1]: no activity | Effects of 10 mg/kg tofacitinib on PF-06650833 exposure ([3]; female rats, 50 mg/kg PF-06650833): no significant effects | Effects of 10 mg/kg tofacitinib on PF-06650833 exposure ([3]; male rats, 100 mg/kg PF-06650833): no significant effects | Inhibition of biomarker readouts in the BT system ([2]; listed as 1-(((2S,3S,4S)-3-Ethyl-4-fluoro-5-oxopyrrolidin-2-yl)methoxy)-7-methoxyisoquinol): little effect; also recorded: modest inhibition of IL-6 and sIL-17F | Inhibition of biomarker readouts in the BT system ([2]; listed as 1-(((2S,3S,4S)-3-ethyl-4-fluoro-5-oxopyrrolidin-2-yl)methoxy)-7-methoxyisoquinol): sIL-17F and sTNFα
